Measurements as given in patent publication US11225460B2, “Pyrrolidineamide derivatives and uses thereof” (SUNSHINE LAKE PHARMA CO., LTD., priority 2019, dated 2022).

Key:
[1] = Pharmacokinetic evaluation after intravenous or gavage administration in rats; type: in vivo, SD rats
Experimental: (§1) The LC-MS/MS system comprises Agilent 1200 series vacuum degassing furnace, quaternary pumps, well-plate autosampler, thermostatted column compartment, the API4000Qtrap Triple Quadrupole Mass Spectrometer with an electrospray ionization (ESI) source. Quantitative analysis was carried out using MRM mode. The parameters for MRM transitions are in Table 2.
(§2) Analysis was carried out on waters xbridge C18 (2.1×50 mm, […] column, 0.5 μL of sample), the analytic conditions are mobile phases cosisting of water+2 mM ammonium formate+0.1% formic acid (Phase A) and methanol+2 mM ammonium formate+0.1% formic acid (Phase B). The flow rate was 0.4 mL/min. And the gradient of Mobile phase was in Table 3.
(§3) Each animal species was divided into two groups: one was administered intravenously and the other was administered intragastrically. The compounds disclosed herein were administered in form of a solution containing 5% DMSO+5% Kolliphor HS15+90% Saline. For the group of intravenous administration, the administration dose was 1 mg/kg, and vein blood samples (0.3 ml) were collected at the time points of 0.083, 0.25, 0.5, 1.0, 2.0, 4.0, 6.0, 8.0 and 24 h after drug administration, then plasma solutions were collected by centrifuging each blood sample at 3000 rpm or 4000 rpm for 10 minutes and kept at −20° C. or −70° C. For the group of intragastric administration, the administration dose was 5 mg/kg, and vein blood samples (0.3 mL) were collected at the time points of 0.25, 0.5, 1.0, 2.0, 4.0, 6.0, 8.0 and 24 h after drug administration, then plasma solutions were collected by centrifuging each blood sample at 3000 rpm or 4000 rpm for 10 minutes and kept at −20° C. or −70° C.
(§4) 20 μL of plasma was blended with 120 μl, 50 ng/ml propranolol standard water solution, then the mixture was extracted with 1.0 mL methyl tert-butyl ether (MTBE), 0.7 mL of supernatant was dried by blow with nitrogen and then dissolved again with 220 μL methanol water (methanol/water (v/v)=1/1). LC-MS/MS method was used to detect the concentration of the target compounds, and […] was used to calculate the pharmacokinetic parameters.

[2] = molecular target: T1, Human recombinant monoamine oxidase B (Homo sapiens, UniProt P27338); test: Inhibitory effect on the activity of monoamine oxidase B; type: biochemical; settings: human recombinant MAO-B, substrate benzylamine hydrochloride
T1 construct: host or cells: Sf9 cells
T1 sequence (P27338 1-520): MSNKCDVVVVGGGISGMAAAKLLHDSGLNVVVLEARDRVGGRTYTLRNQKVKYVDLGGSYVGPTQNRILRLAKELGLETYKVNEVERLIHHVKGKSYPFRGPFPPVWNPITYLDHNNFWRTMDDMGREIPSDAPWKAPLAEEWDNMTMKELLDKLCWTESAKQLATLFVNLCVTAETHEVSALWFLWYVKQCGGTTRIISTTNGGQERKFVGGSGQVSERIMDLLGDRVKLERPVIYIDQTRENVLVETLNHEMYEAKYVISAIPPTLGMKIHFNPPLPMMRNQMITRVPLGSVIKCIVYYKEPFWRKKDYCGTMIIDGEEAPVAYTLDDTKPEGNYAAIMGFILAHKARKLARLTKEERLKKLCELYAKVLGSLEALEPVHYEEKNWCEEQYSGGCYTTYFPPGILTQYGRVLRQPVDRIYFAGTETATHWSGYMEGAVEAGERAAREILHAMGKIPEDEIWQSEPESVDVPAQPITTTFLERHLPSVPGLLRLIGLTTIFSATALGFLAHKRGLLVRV
Experimental: Human recombinant monoamine oxidase B expressed in Sf9 cells was used in the test system. In the experiment, firstly, the recombinant monoamine oxidase B was dissolved in the pre-configured HEPES buffer (0.8% NaCl, 0.037% KCl, 0.0135% Na2HPO4.2H2O, 0.1% Glucan, 0.5% HEPES, pH=7.0) at a concentration of 0.3 μg/μL. To each well of a 384-well plate was added 10 μL of monoamine oxidase B solution, and the test compound with different concentrations (the final concentration of DMSO was 1%) (10 gradient concentrations were 10 mM, 1 mM, 100 μM, 10 μM, 1 μM, 100 nM, 10 nM, 1 nM, 0.1 nM, 0.01 nM) were added into the wells respectively. The standard reference compound was R-(−)-Deprenyl, the plate was incubated at room temperature for 15 min. Then, each well filled with 10 μL substrate solution (Benzylamine hydrochloride, 1 mM) was incubated at room temperature for 60 min. Then 20 μL of fluorescein detection reagent was added to each well, which was fully blended and incubated at room temperature for 20 minutes to produce stable fluorescence signal. The fluorescence signal was read by fluorescein labeling instrument, and the value was expressed by relative light intensity (RLU). The inhibitory rate on enzyme activity was calculated according to the experimental results, the calculated formula: Inh %=(Max−Signal)/(Max−Min)*100, wherein Max was the detected value at the maximum concentration of the sample, Min was the detected value at the minimum concentration of the sample, and Signal was the detected value at the current concentration of the sample.
The standard curve was obtained through the series concentration by experimental test to calculate the IC50.

[3] = Pharmacokinetic evaluation after intravenous or gavage administration in dogs; type: in vivo, Beagle dogs; settings: for AUC(0-inf) / AUC(0-t) / Cmax / MRT inf / Tmax / clearance / half-life: beagle, dog, plasma
Experimental: as §1, §2, §3, §4

[4] = Pharmacokinetic evaluation after intravenous or gavage administration in monkeys; type: in vivo
Experimental: as §1, §2, §3, §4

[5] = SD, rat, plasma, iv, i.v group, 1 mg/kg
[6] = SD, rat, plasma, po, i.g group, 5 mg/kg
[7] = monkey, plasma, iv, i.v group, 1 mg/kg
[8] = monkey, plasma, po, i.g group, 5 mg/kg

**Q.** What does the source list for `NC(=O)[C@@H]1C[C@H](F)CN1Cc1ccc(OCc2cccc(F)c2)cc1F` [Example 3, (2S,4S)-4-fluoro-1-(2-fluoro-4-(3-fluorobenzyloxy)benzyl)pyrrolidine-2-formamide]?
**A.** AUC(0-inf) [1, 5]: 582 ng·h/mL; AUC(0-t) [1, 5]: 582 ng·h/mL; Cmax [1, 5]: 681 ng/mL; MRT inf [1, 5]: 0.778 h; Tmax [1, 5]: 0.083 h; clearance [1, 5]: 28.7 mL/min/kg; half-life [1, 5]: 0.712 h; AUC(0-inf) [1, 6]: 1550 ng·h/mL; AUC(0-t) [1, 6]: 1520 ng·h/mL; Cmax [1, 6]: 700 ng/mL; MRT inf [1, 6]: 2.11 h; Tmax [1, 6]: 0.625 h; half-life [1, 6]: 1.23 h; F ([1]; i.g group, 5 mg/kg): 53.3%; IC50 [2]: 30 nM; AUC(0-inf) ([3]; iv, i.v group, 1 mg/kg): 979 ng·h/mL; AUC(0-t) ([3]; iv, i.v group, 1 mg/kg): 977 ng·h/mL; Cmax ([3]; iv, i.v group, 1 mg/kg): 1490 ng/mL; MRT inf ([3]; iv, i.v group, 1 mg/kg): 0.871 h; Tmax ([3]; iv, i.v group, 1 mg/kg): 0.083 h; clearance ([3]; iv, i.v group, 1 mg/kg): 17 mL/min/kg; half-life ([3]; iv, i.v group, 1 mg/kg): 1.13 h; AUC(0-inf) ([3]; po, i.g group, 5 mg/kg): 2450 ng·h/mL; AUC(0-t) ([3]; po, i.g group, 5 mg/kg): 2440 ng·h/mL; Cmax ([3]; po, i.g group, 5 mg/kg): 1380 ng/mL; MRT inf ([3]; po, i.g group, 5 mg/kg): 1.44 h; Tmax ([3]; po, i.g group, 5 mg/kg): 0.5 h; half-life ([3]; po, i.g group, 5 mg/kg): 1.09 h; F ([3]; i.g group, 5 mg/kg): 50.1%; F ([4]; i.g group, 5 mg/kg): 69.1%; AUC(0-inf) [4, 7]: 3260 ng·h/mL; AUC(0-t) [4, 7]: 3240 ng·h/mL; MRT inf [4, 7]: 3.41 h; Tmax [4, 7]: 0.083 h; clearance [4, 7]: 5.12 mL/min/kg; half-life [4, 7]: 2.24 h; Cmax ([4]; monkey, plasma, iv, i.v group, 1 mg/kg, read-out: Cmax): 1610 ng/mL; AUC(0-inf) [4, 8]: 11200 ng·h/mL; AUC(0-t) [4, 8]: 11200 ng·h/mL; MRT inf [4, 8]: 5.02 h; Tmax [4, 8]: 1 h; half-life [4, 8]: 3.39 h; Cmax ([4]; monkey, plasma, po, i.g group, 5 mg/kg, read-out: Cmax): 2010 ng/mL

**Q.** Which results are given for `NC(=O)[C@@H]1C[C@H](F)CN1Cc1ccc(OCc2cccc(F)c2)cc1` [Example 1, (2S,4S)-4-fluoro-1-(4-(3-fluorobenzyloxy)benzyl)pyrrolidine-2-formamide]?
**A.** AUC(0-inf) [1, 5]: 507 ng·h/mL; Cmax [1, 5]: 690 ng/mL; MRT inf [1, 5]: 0.694 h; Tmax [1, 5]: 0.083 h; AUC(0-inf) [1, 6]: 1400 ng·h/mL; AUC(0-t) [1, 6]: 1400 ng·h/mL; Cmax [1, 6]: 1000 ng/mL; MRT inf [1, 6]: 1.08 h; Tmax [1, 6]: 0.333 h; half-life [1, 6]: 0.565 h; F ([1]; i.g group, 5 mg/kg): 55.2%; AUClast ([1]; i.v group, 1 mg/kg): 505 ng·h/mL; Cl ([1]; i.v group, 1 mg/kg): 32.9 mL/min/kg; T1/2 ([1]; i.v group, 1 mg/kg): 0.67 h; IC50 [2]: 19 nM; AUC(0-inf) ([3]; iv, i.v group, 1 mg/kg): 1500 ng·h/mL; AUC(0-t) ([3]; iv, i.v group, 1 mg/kg): 1480 ng·h/mL; Cmax ([3]; iv, i.v group, 1 mg/kg): 1230 ng/mL; MRT inf ([3]; iv, i.v group, 1 mg/kg): 2.77 h; Tmax ([3]; iv, i.v group, 1 mg/kg): 0.083 h; clearance ([3]; iv, i.v group, 1 mg/kg): 11.1 mL/min/kg; half-life ([3]; iv, i.v group, 1 mg/kg): 5.05 h; AUC(0-inf) ([3]; po, i.g group, 5 mg/kg): 4990 ng·h/mL; AUC(0-t) ([3]; po, i.g group, 5 mg/kg): 4930 ng·h/mL; Cmax ([3]; po, i.g group, 5 mg/kg): 1730 ng/mL; MRT inf ([3]; po, i.g group, 5 mg/kg): 2.98 h; Tmax ([3]; po, i.g group, 5 mg/kg): 0.833 h; half-life ([3]; po, i.g group, 5 mg/kg): 3.27 h; F ([3]; i.g group, 5 mg/kg): 66.5%; AUClast ([4]; i.g group, 5 mg/kg): 11300 ng·h/mL; Cmax ([4]; i.g group, 5 mg/kg): 2280 ng/mL; F ([4]; i.g group, 5 mg/kg): 107.1%; T1/2 ([4]; i.g group, 5 mg/kg): 2.8 h; AUClast ([4]; i.v group, 1 mg/kg): 2120 ng·h/mL; Cl ([4]; i.v group, 1 mg/kg): 7.54 mL/min/kg; Cmax ([4]; i.v group, 1 mg/kg): 924 ng/mL; T1/2 ([4]; i.v group, 1 mg/kg): 1.77 h; AUC(0-inf) [4, 7]: 2210 ng·h/mL; MRT inf [4, 7]: 2.35 h; Tmax [4, 7]: 0.083 h; AUC(0-inf) [4, 8]: 11400 ng·h/mL; MRT inf [4, 8]: 4.33 h; Tmax [4, 8]: 1 h
